The results in this text go back to US9018258B2, “Substituted 1-benzylcycloalkylcarboxylic acids and the use thereof” (Bayer Intellectual Property GmbH, priority 2010, dated 2015).

For one assay, the system named is saphenous artery. As to the kind of experiment: Vasorelaxant effect in vitro (phenylephrine-contracted saphenous artery rings). Further details: species or system Rabbits. To be noted: Oryctolagus cuniculus; rabbit saphenous artery rings, phenylephrine-induced contraction. The method, then: Rabbits are anaesthetized and sacrificed by intravenous injection of thiopental sodium (about 50 mg/kg) and exsanguinated. The saphenous artery is removed and divided into rings 3 mm wide. the rings are mounted singly on in each case a pair of triangular hooks open at the end and made of 0.3 mm-thick special wire (Remanium®). Each ring is placed under an initial tension in 5 ml organ baths with Krebs-Henseleit solution which is at 37° C., is gassed with carbogen and has the following composition: NaCl 119 mM; KCl 4.8 mM; CaCl2×2 H2O 1 mM; MgSO4×7 H2O 1.4 mM; KH2PO4 1.2 mM; NaHCO3 25 mM; glucose 10 mM; bovine serum albumin 0.001%. The force of contraction is detected with Statham UC2 cells, amplified and digitized via A/D converters (DAS-1802 HC, Keithley Instruments, Munich) and recorded in parallel on chart recorders. Contractions are induced by addition of phenylephrine.
After several (generally 4) control cycles, the substance to be investigated is added in each further run in increasing dosage, and the level of the contraction achieved under the influence of the test substance is compared with the level of the contraction reached in the last preceding run. The concentration necessary to reduce the contraction reached in the preceding control by 50% is calculated from this (IC50). The standard application volume is 5 μl. The proportion of DMSO in the bath solution corresponds to 0.1%.

The target in a further assay is T1, GAL4-PPARγ (Homo sapiens, UniProt P37231).
T1 construct: PPARγ (amino acids 203-506); expressed in transfected cells
T1 sequence (P37231 203-505 limits assumed): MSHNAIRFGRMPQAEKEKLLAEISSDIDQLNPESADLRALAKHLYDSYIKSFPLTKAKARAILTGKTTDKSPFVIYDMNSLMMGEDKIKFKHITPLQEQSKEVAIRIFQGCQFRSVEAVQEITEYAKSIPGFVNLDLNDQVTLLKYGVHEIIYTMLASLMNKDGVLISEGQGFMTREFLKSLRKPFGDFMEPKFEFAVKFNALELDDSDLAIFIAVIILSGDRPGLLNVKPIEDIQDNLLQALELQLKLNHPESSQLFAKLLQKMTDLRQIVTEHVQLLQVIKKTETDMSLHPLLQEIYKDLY
As to the kind of experiment: Cellular PPAR transactivation assay, GAL4-PPARγ chimera in CHO-K1 cells. It counts as cell-based. The note with it: for Emax: CHO-K1, maximum effect relative to reference compound (Example 73 of EP 1 452 521-A1 = 100%), read-out: PPARγ efficacy; for EC50: CHO-K1 cells, luciferase reporter, 6 h stimulation. The gist of the method: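 CHO-K1 cells stably expressing GAL4 DNA-binding domain fused to the human PPAR ligand-binding domain (α aa 167-468, γ aa 203-506, δ aa 138-442) plus a GAL4-driven firefly luciferase reporter. Compounds added in serum-free medium for 6 h; EC50 from luminescence curves. Efficacy in % of a pan-PPAR agonist reference set as 100%.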
A general note: Reporter assays use an easily measured gene product as a stand-in for the process of interest.

The target in assay [1] is T2, soluble guanylate cyclase (sGC) (Rattus norvegicus, UniProt P20595).
T2 construct: made in house; host or cells: Sf9 insect cells (baculovirus)
Nature of the assay: Stimulation of sGC enzyme activity (PPi detection, luciferase). Format: biochemical. To be noted: sGC enzyme in vitro; for EC50: read-out: EC50 (concentration at 50% of maximum efficacy), activating action at the sGC enzyme. The method, then:
Soluble guanylate cyclase (sGC) converts on stimulation GTP into cGMP and pyrophosphate (PPi). PPi is detected with the aid of the assay described below. The signal produced in the assay increases as the reaction progresses and serves as a measure of the sGC enzyme activity under the given stimulation.
To carry out the assay, 29 μl of enzyme solution [0-10 nM soluble guanylate cyclase (prepared according to Honicka et al., J. Mol. Med. 77, 14-23 (1999)) in 50 mM TEA, 2 mM MgCl2, 0.1% BSA (fraction V), 0.005% Brij®, pH 7.5] are initially introduced into a microplate, and 1 μl of the substance to be tested (as a serially diluted solution in DMSO) is added. The mixture is incubated at room temperature for 10 min. Then 20 μl of detection mix [1.2 nM Firefly Luciferase (Photinus pyralis luciferase, Promega), 29 μM dehydroluciferin (prepared according to Bitler & McElroy, Arch. Biochem. Biophys. 72, 358 (1957)), 122 μM luciferin (Promega), 153 μM ATP (Sigma) and 0.4 mM DTT (Sigma) in 50 mM TEA, 2 mM MgCl2, 0.1% BSA (fraction V), 0.005% Brij®, pH 7.5] are added. The enzyme reaction is started by adding 20 μl of substrate solution [1.25 mM guanosine 5′-triphosphate (Sigma) in 50 mM TEA, 2 mM MgCl2, 0.1% BSA (fraction V), 0.005% Brij®, pH 7.5] and measured continuously in a luminometer. The extent of the stimulation by the substance to be tested can be determined relative to the signal of the unstimulated reaction.
The activation of haem-free guanylate cyclase is examined by addition of 25 μM of 1H-1,2,4-oxadiazolo[4,3-a]quinoxalin-1-one (ODQ) to the enzyme solution and subsequent incubation for 30 minutes and compared to the stimulation of the native enzyme.

A word on the IC50: it is the point on the concentration scale where inhibition reaches its midpoint.

T2 sequence (P19686 whole entry partner): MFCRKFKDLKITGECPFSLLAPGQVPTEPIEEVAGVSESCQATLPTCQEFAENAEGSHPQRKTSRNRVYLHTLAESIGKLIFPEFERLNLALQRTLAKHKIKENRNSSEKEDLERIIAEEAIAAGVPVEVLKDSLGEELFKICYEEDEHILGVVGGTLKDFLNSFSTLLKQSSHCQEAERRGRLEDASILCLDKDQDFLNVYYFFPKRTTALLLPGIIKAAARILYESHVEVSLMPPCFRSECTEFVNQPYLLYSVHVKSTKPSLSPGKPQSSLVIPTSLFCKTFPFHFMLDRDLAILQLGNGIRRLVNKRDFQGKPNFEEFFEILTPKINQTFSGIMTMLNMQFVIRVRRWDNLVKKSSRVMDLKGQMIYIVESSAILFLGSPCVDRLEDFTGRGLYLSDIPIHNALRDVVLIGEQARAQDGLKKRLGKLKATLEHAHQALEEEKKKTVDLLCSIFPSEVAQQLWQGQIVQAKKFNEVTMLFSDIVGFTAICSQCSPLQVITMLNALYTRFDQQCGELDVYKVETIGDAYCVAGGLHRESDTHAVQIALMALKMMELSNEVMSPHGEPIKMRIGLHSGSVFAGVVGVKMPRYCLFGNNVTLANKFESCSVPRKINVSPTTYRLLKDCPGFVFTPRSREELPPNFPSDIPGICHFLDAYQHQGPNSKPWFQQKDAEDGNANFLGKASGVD
T2 sequence (P20595 whole entry): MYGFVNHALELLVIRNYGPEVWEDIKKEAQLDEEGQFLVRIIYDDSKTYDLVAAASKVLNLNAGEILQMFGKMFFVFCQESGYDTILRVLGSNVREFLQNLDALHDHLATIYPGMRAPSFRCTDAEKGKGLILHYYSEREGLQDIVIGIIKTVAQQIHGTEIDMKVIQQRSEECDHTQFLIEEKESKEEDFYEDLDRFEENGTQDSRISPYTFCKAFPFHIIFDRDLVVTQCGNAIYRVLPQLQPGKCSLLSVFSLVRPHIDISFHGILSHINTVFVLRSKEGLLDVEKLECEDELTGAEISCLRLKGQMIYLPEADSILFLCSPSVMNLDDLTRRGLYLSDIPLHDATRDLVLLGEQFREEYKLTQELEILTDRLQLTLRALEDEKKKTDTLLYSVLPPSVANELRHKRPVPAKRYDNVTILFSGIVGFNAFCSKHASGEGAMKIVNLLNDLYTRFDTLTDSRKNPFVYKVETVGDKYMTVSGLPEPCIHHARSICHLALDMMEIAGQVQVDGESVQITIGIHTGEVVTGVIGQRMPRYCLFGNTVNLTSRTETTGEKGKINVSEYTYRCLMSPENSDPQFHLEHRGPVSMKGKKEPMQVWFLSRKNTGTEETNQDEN

Consider `CCOC(c1ccc(Cl)c(NC(=O)[C@H](c2ccc(Cl)cc2)[C@@H](C)C(F)(F)F)c1)C1(C(=O)O)CC1` (single isomer, unassigned) [Example 101], for which the IC50 with saphenous artery was found to be 685 nM. In addition, on GAL4-PPARγ, the Emax is 0% and the EC50 was above 10000 nM. In assay [1], the “MEC (minimum effective concentration), activating action at the sGC enzyme” value (from here on “MEC (minimum effective concentration)”) turned out to be 0.7 nM and the EC50 was determined as 4.6 nM.
Take `[2H]C([2H])([2H])OC(c1ccc(Cl)c(NC(=O)[C@H](c2ccc(Cl)cc2)[C@@H](C)C(F)(F)F)c1)C1(C(=O)O)CC1` (single isomer, unassigned; (+)) [Example 99]: at GAL4-PPARγ, the Emax was determined as 0% and the EC50 is above 10000 nM. Further, in assay [1], the “MEC (minimum effective concentration)” value is 4.1 nM and the EC50 was 53 nM.
As to `C[C@H]([C@H](C(=O)Nc1cc(CC2(C(=O)O)CC2)ccc1Cl)c1ccc(Cl)c(F)c1)C(F)(F)F` [Example 30, (+)-1-(4-chloro-3-{[(2S,3R)-2-(4-chloro-3-fluoro-phenyl)-4,4,4-trifluoro-3-methylbutanoyl]amino}-benzyl)cyclopropanecarboxylic acid], in the assay on saphenous artery, the IC50 was determined as 606 nM. Further, on GAL4-PPARγ, the Emax is 20% and the EC50 is 2300 nM. Besides, in assay [1], the “MEC (minimum effective concentration)” value came to 0.6 nM and the EC50 amounted to 7.6 nM.
For the molecule `C[C@H]([C@H](C(=O)Nc1cc(CC2(C(=O)O)CC2)ccc1Cl)c1ccc(Cl)cc1)C(F)(F)F` [Example 50, (+)-1-(4-Chloro-3-{[(2S,3R)-2-(4-chlorophenyl)-4,4,4-trifluoro-3-methylbutanoyl]amino}benzyl)-cyclopropanecarboxylic acid], in the assay with saphenous artery, the IC50 turned out to be 145 nM. Moreover, at GAL4-PPARγ, the Emax is 45% and the EC50 is 3000 nM. Further, in assay [1], the “MEC (minimum effective concentration)” value was determined as 0.7 nM and the EC50 is 7.3 nM.
